The values below are quoted from earlier work in US20080176787A1, “Parathyroid hormone analogues and methods of use” (priority 2005, published 2008).

Read-outs that look alike come from different tables or passages of the source. Marks after values point to notes of the source that are not given here.

The subject of data set [1] is patients. The note with it: cited from earlier work.
Data set [2] relates to OVX adult Cynomolgus monkeys. The note with it: Femoral Neck, F, 18 months, cited from earlier work.
Data set [3] concerns OVX adult Cynomolgus monkeys. The note with it: Humerus Mid-Diaphysis, F, 18 months, cited from earlier work.
For data set [4], the system named is rats. The note with it: rat, in vivo; cited from earlier work.
In data set [5] the test system is monkey. The note with it: cited from earlier work.
Data set [6] has as its system postmenopausal women (with prior vertebral fractures). The note with it: cited from earlier work; for hypercalcemia seen at least once, % of subjects: average of 19 months (placebo 2%).
The mark [7] stands for this setting: 20 μg (6 months), inferred from graphed data.
Setting [8] is: teriparatide 0, 0.5, 2, 10 μg/kg, 12 mth monkey.

As to `CC[C@H](C)[C@H](NC(=O)[C@H](CCC(=O)O)NC(=O)[C@H](CO)NC(=O)[C@@H](NC(=O)[C@@H](N)CO)C(C)C)C(=O)N[C@@H](CCC(N)=O)C(=O)N[C@@H](CC(C)C)C(=O)N[C@@H](CCSC)C(=O)N[C@@H](Cc1cnc[nH]1)C(=O)N[C@@H](CC(N)=O)C(=O)N[C@@H](CC(C)C)C(=O)NCC(=O)N[C@@H](CCCCN)C(=O)N[C@@H](Cc1cnc[nH]1)C(=O)N[C@@H](CC(C)C)C(=O)N[C@@H](CC(N)=O)C(=O)N[C@@H](CO)C(=O)N[C@@H](CCSC)C(=O)N[C@@H](CCC(=O)O)C(=O)N[C@@H](CCCN=C(N)N)C(=O)N[C@H](C(=O)N[C@@H](CCC(=O)O)C(=O)N[C@@H](Cc1c[nH]c2ccccc12)C(=O)N[C@@H](CC(C)C)C(=O)N[C@@H](CCCN=C(N)N)C(=O)N[C@@H](CCCCN)C(=O)N[C@@H](CCCCN)C(=O)N[C@@H](CC(C)C)C(=O)N[C@@H](CCC(N)=O)C(=O)N[C@@H](CC(=O)O)C(=O)N[C@H](C(=O)N[C@@H](Cc1cnc[nH]1)C(=O)N[C@@H](CC(N)=O)C(=O)N[C@@H](Cc1ccccc1)C(=O)O)C(C)C)C(C)C` [Forteo, hPTH-(1-34)], in data set [1] (setting [7]), the CTx is reported as 3300^2 pM/L, the P1NP is on record as 71^2 μg/L and the “TH-BMD (%)” value is 0.6^2%. In addition, in data set [1] (20 μg (6 months)), the “FN-BMD (%)” value was 1.02%, the “LS-BMD (%)” value is on record as 5.2% and the “Mean [Ca]” value is listed as 0.075 mmol/L. Further, in data set [1] (in vivo), the “Pts > 2.75 mmol/L” value is recorded as 5 and the “Pts > 2.75 mmol/L (sustained)” value was 2. The “% Cortical Porosity” value in data set [2] (1 μg/kg/day) is listed as 8.5 ± 0.8 %. The “% Cortical Porosity” value in data set [2] (5 μg/kg/day) is on record as 8.9 ± 0.6 %. For the same compound, the “% Cortical Porosity” value in data set [3] (1 μg/kg/day) was ~15.0* %. Moreover, the “% Cortical Porosity” value in data set [3] (5 μg/kg/day) is on record as ~25* %. In addition, the “osteosarcoma in rats (warning label)” value in data set [4] is recorded as “increase in incidence of osteosarcoma in rats”. The “nephropathy” value in data set [5] (pre-clinical toxicity) was “induces a mineralizing nephropathy in monkeys and possibly rats”. In addition, in data set [5] (setting [8]), the “Free Ca” value is reported as “Free Ca increased”, the serum neutralising antibodies result was “detected all doses” and the tubulo-interstitial nephritis entry was “nephritis all doses;”. Moreover, in data set [5] (teriparatide, 12 mth monkey), the NoAEL was less than 0.5 µg/kg. For the same compound, in data set [6] (20 μg for at least 12 Months), the “Mean % Change In Femoral Neck (BMD)” value is given as 1.54%, the “Mean % Change In Total Hip (BMD)” value was 1.70% and the “Mean % Change In Trochanter (BMD)” value was 2.68%. The “hypercalcemia seen at least once, % of subjects” value in data set [6] (20 μg/day) was 11%. The “hypercalcemia seen at least once, % of subjects” value in data set [6] (40 μg/day) is 28%. The “BMD in distal and mid-shaft radius compared to placebo” value in data set [6] (Neer et al.) is “decrease in BMD”.
